This note sets out measurements from publication PMC10578352, “Identification of a Protein Arginine Methyltransferase 7 (PRMT7)/Protein Arginine Methyltransferase 9 (PRMT9) Inhibitor” (Journal of Medicinal Chemistry, 2023).

The assay addresses T1, GST-HsPRMT7 (Homo sapiens, UniProt Q9NVM4).
T1 construct: made in house; host or cells: E. coli
T1 sequence (Q9NVM4 1-692): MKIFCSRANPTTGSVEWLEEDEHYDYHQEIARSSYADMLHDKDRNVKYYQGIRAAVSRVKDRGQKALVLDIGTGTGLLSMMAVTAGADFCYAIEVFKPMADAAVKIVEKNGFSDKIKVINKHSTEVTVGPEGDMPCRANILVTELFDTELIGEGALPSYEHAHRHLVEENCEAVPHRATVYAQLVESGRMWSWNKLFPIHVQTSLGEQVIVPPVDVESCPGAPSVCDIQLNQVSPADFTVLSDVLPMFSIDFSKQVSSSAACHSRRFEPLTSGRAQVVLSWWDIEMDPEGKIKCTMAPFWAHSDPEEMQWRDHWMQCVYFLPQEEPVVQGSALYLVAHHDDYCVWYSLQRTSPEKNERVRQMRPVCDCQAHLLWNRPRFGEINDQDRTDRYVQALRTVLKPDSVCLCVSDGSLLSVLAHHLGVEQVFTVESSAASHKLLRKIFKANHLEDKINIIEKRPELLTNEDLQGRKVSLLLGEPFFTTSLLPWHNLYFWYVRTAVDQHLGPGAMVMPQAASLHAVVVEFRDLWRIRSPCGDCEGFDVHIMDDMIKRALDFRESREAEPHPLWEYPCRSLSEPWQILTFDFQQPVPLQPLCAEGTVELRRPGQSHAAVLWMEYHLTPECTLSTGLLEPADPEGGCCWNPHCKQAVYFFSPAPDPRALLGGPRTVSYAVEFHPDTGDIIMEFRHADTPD
Briefly: Radioisotope-based assay (SDS-PAGE, fluorography, densitometry), HsPRMT7. The class given is biochemical. The conditions noted are these: substrate HsH2B, 15 °C, read-out: % HsPRMT7 residual activity. The method, then: Based on these outcomes, we resolved to explore the effect on the capability to inhibit PRMT9 enzymatic activity of further reduction of the distance between the pharmacophoric moieties. […] After the experiment was repeated with 100, 250, and 500 μM concentrations of each inhibitor, half inhibition was observed only at a concentration of roughly 250 μM (Figure 4d).
[…]. The experiments were performed as reported in the Experimental procedures section. GST-HsPRMT9 (a) and GST-HsPRMT7 (b) were incubated with human GST-SF3B2 (401–550) peptide or recombinant HsH2B, respectively (1 μg of enzyme, 5 μg of substrate), 0.14 μM [^3H]SAM, and the indicated concentrations of tested compounds at the corresponding optimal reaction temperature (37 °C for HsPRMT9, 15 °C for HsPRMT7). C. elegans GST-tagged enzymes PRMT9 (c) and PRMT7 (d) were incubated with GST-CeSFTB-2 (99–248) fragment or recombinant HsH2B, respectively (1 μg of enzyme, 5 μg of substrate), 0.14 μM [^3H]SAM, and the indicated concentrations of tested compounds at the corresponding optimal reaction temperature (25 °C for CePRMT9, 15 °C for CePRMT7). After SDS-PAGE, the gels were treated as previously described[48] and densitometry analysis was done using ImageJ software, and data was plotted as normalized activity to the no inhibitor controls.
Human PRMT9, C. elegans PRMT9, human PRMT7, and C. elegans PRMT7 plasmids were sequenced, expressed in E. coli as GST-fusion proteins, and purified as previously described.[48] Substrates were also sequenced and purified as described [human GST-SF3B2 (401–550);[13]C. elegans SFTB-2;[48] human histone H2B (New England Biolabs, M2505S)]. Xenopus laevis histone H2B was expressed in E. coli and purified similarly to what was previously reported by Luger et al.[72]
Reactions consisting of approximately 1 μg of enzyme (human or C. elegans GST-tagged enzymes PRMT9 and PRMT7), reacted with approximately 5 μg of substrate [for human PRMT9, human GST-SF3B2 401–550 fragment; C. elegans PRMT9 with C. elegans GST-SFTB-2 (99–248) fragment, or recombinant human histone H2B from New England Biolabs (M2505S)], were incubated for the indicated time in reaction buffer {50 mM potassium HEPES buffer, 10 mM NaCl, 1 mM dithiothreitol (DTT), pH 8.0 with 0.7 μM S-adenosyl-L-[methyl-^3H]methionine (^3H-AdoMet, PerkinElmer Life Sciences, 82.7 Ci/mmol, 0.55 mCi/mL in 10 mM H2SO4/EtOH [9:1 (v/v)])} in a final reaction volume of 60 μL. Each reaction was incubated at the corresponding optimal reaction temperature (37 °C for human PRMT9, 25 °C for C. elegans PRMT9, and 15 °C for C. elegans and human PRMT7 enzymes. MTA was dissolved in water, and a wavelength scan was taken to determine the final concentration using the extinction coefficient. The final concentrations used are indicated in the figure legends. […]. EML734, EML736, and EML709 were also dissolved in DMSO, and further dilutions were made in DMSO for the working stocks. For controls, no inhibitor reactions were created by the addition of the respective solvent (water for MTA and DMSO for EPZ015666 and EML inhibitors).
After the reaction incubations with the various concentrations of inhibitors, the reactions were quenched by adding 0.2 volume of 5× SDS sample loading buffer, and subsequently, the reactions were run on a 12.6% polyacrylamide Tris gel. To collect the radioactive signal, the gels were then treated in the same way as previously described.[48] […]
For the compound `COC(=O)c1cc(O)c2cc(NC(=O)NCCCNC(=N)NC[C@H]3O[C@@H](n4cnc5c(N)ncnc54)[C@H](O)[C@@H]3O)ccc2c1` [1a], the remaining activity at 100 µM was 0.5%.

As for `COC(=O)c1cc(O)c2cc(NC(=O)NCCCCNC(=N)NC[C@H]3O[C@@H](n4cnc5c(N)ncnc54)[C@H](O)[C@@H]3O)ccc2c1` [1b], the remaining activity at 100 µM stood at 8.27%.

As to `COC(=O)c1cc(O)c2cc(NC(=O)NCCCCCNC(=N)NC[C@H]3O[C@@H](n4cnc5c(N)ncnc54)[C@H](O)[C@@H]3O)ccc2c1` [1c], the remaining activity at 100 µM was 0.03%.
